Measurements reported in patent publication US8044029B2, “Sulfatides for treatment of autoimmune disorders” (Torrey Pines Institute for Molecular Studies, priority 2005, dated 2011).

System: chronic-relapsing EAE in SJL/J mice
Test: Chronic-relapsing EAE, PLP139-151-immunized SJL/J mice
Format: in vivo, mouse
Details: 20 μg intraperitoneally at the onset of EAE, FIG. 3
Procedure: (§1) Wild type, SJL/J female mice, 6-8 week of age were immunized once subcutaneously with 75 μg of proteolipid protein peptide PLP139-151 emulsified in incomplete Freund's adjuvant (Difco, Detroit, Mich., USA) supplemented with attenuated M. tuberculosis (DIFCO) to 2 mg/ml. Mice were observed daily for signs of EAE for 50 days. The average disease score for each group was calculated by averaging the maximum severity of all of the affected animals in the group. Disease severity was scored on a 5-point scale, as described earlier: 1, flaccid tail; 2, hind limb weakness; 3, hind limb paralysis; 4, whole body paralysis; 5, moribund or death.
In the treatment protocol, 20 μg of bovine brain sulfatide in 200 μl of PBS or vehicle was given intraperitoneally at the onset of EAE and 2 weeks later. […]
as §1, with “wk” for “week”, “PLP139-151” for “proteolipid protein”, “peptide” for “peptide PLP139-151”, “IFA (DIFCO)” for “incomplete Freund's adjuvant (Difco, Detroit, Mich., USA)”, “Mice were observed daily for signs of EAE for 50 days.” left out, “death. […]” for “death.”

Structure (SMILES): CCCCCCCC/C=C\CCCCCCCCCCCCCC(=O)N[C@@H](CO[C@@H]1O[C@H](CO)[C@H](O)[C@H](OS(=O)(=O)O)[C@H]1O)[C@H](O)/C=C/CCCCCCCCCCCCC [cis-tetracosenoyl sulfatide, (2S, 3R, 4E)-N-nervonic-1-[-D-(3-sulfate)-galactopyranosyl]-2-amino-octadecene-3-ol]
- effect on ongoing chronic-relapsing EAE (disease score, 5-point scale): reverses ongoing chronic-relapsing EAE
